In patent publication US20220062240A1, “METHODS OF TREATING CANCER USING A CLK INHIBITOR” (BioSplice Therapeutics, Inc., priority 2018, published 2022):
pEC50: −log10 of the molar value. Read-outs that look alike come from different tables or passages of the source.

Tests used:
[1] = biological target: T1, CLK2 (Homo sapiens, UniProt P49760); assay: CLK2 kinase activity assay (Z-lyte, Ser/Thr 6 peptide); format: biochemical; details: recombinant CLK2 kinase, ATP 60 μM; read-out: EC50
T1 construct: purchased Thermo Fisher (Life Technologies), Z'-LYTE Kinase Assay Kits
T1 sequence (P49760 whole entry): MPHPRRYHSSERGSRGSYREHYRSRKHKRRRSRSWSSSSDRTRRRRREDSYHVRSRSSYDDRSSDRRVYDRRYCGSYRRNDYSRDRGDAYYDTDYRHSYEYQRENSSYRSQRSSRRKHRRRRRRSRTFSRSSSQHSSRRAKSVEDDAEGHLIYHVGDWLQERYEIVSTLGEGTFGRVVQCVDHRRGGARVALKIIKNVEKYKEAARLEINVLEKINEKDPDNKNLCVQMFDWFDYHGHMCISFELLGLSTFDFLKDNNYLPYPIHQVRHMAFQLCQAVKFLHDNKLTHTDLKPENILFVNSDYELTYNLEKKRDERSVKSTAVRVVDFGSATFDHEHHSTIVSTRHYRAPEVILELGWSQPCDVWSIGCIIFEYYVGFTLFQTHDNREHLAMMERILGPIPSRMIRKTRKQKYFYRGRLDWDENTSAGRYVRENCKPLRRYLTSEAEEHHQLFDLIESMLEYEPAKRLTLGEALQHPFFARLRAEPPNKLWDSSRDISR
Description: All reactions were performed in duplicate.

[2] = test system: liver cancer (3 cell lines); assay: CellTiter-Glo Viability Assay, liver cancer; format: cell-based; details: Homo sapiens, inhibition of cancer cell proliferation
[3] = test system: MCF7; assay: CellTiter-Glo Viability Assay, breast cancer; format: cell-based; details: Homo sapiens, 96 h; MCF7, breast cancer, four days; read-out: EC50
[4] = test system: HCC1599; assay: CellTiter-Glo Viability Assay, breast cancer; format: cell-based; details: Homo sapiens, 96 h; HCC1599, breast cancer, four days; read-out: EC50
[5] = test system: T47D; assay: CellTiter-Glo Viability Assay, breast cancer; format: cell-based; details: Homo sapiens, 96 h, breast cancer, four days, read-out: EC50
[6] = test system: MDA-MB-231-Luc; assay: CellTiter-Glo Viability Assay, breast cancer; format: cell-based; details: Homo sapiens, 96 h; MDA-MB-231-Luc, breast cancer, four days; read-out: EC50
[7] = test system: DU4475; assay: CellTiter-Glo Viability Assay, breast cancer; format: cell-based; details: Homo sapiens, DU-4475, 96 h; DU4475, breast cancer, four days; read-out: EC50
[8] = test system: CAMA1; assay: CellTiter-Glo Viability Assay, breast cancer; format: cell-based; details: Homo sapiens, CAMA-1, 96 h; CAMA1, breast cancer, four days; read-out: EC50
[9] = test system: BT-549; assay: CellTiter-Glo Viability Assay, breast cancer; format: cell-based; details: Homo sapiens, 96 h; BT-549, breast cancer, four days; read-out: EC50
[10] = test system: ZR-75-1; assay: CellTiter-Glo Viability Assay, breast cancer; format: cell-based; details: Homo sapiens, 96 h; ZR-75-1, breast cancer, four days; read-out: EC50
[11] = biological target: CLK3 (Homo sapiens, UniProt P49761); assay: CLK3 kinase activity assay (Z-lyte, Ser/Thr 18 peptide)
CLK3, sequence (P49761 whole entry): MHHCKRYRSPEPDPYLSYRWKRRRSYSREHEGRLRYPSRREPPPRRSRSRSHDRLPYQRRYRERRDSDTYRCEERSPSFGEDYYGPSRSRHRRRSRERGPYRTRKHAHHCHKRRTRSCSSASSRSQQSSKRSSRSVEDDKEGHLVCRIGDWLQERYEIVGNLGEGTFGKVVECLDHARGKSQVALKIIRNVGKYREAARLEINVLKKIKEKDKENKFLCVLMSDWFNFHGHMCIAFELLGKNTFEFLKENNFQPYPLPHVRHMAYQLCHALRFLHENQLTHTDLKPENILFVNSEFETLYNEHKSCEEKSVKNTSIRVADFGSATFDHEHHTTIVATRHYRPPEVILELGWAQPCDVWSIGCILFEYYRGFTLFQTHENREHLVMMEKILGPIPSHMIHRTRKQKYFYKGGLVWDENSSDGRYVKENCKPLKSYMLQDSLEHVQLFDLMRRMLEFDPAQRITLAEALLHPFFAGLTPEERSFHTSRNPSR

[12] = test system: haematopoietic & lymphoid tumors (13 cell lines); assay: CellTiter-Glo Viability Assay, haematopoietic & lymphoid tumors; format: cell-based; details: Homo sapiens, inhibition of cancer cell proliferation
[13] = test system: prostate cancer (5 cell lines); assay: CellTiter-Glo Viability Assay, prostate cancer; format: cell-based; details: Homo sapiens
[14] = test system: colorectal cancer (6 cell lines); assay: CellTiter-Glo Viability Assay, colorectal cancer; format: cell-based; details: Homo sapiens, inhibition of cancer cell proliferation
[15] = test system: all 50 cell lines; assay: CellTiter-Glo Viability Assay, average across all cell lines; format: cell-based; details: Homo sapiens; across all 50 cell lines; read-out: average EC50 for inhibition of cancer cell proliferation
Outline: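 4-day proliferation, 37° C/5% CO2; 300-3,000 cells/well; compound in duplicate vs DMSO controls. Panel: breast, colorectal, heme/lymphoid, liver, lung, ovarian, pancreatic, prostate lines. Read-out: CellTiter-Glo ATP luminescence, EC50 from dose-response.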

[16] = test system: lung cancer (4 cell lines); assay: CellTiter-Glo Viability Assay, lung cancer; format: cell-based; details: Homo sapiens, inhibition of cancer cell proliferation
[17] = test system: pancreatic cancer (8 cell lines); assay: CellTiter-Glo Viability Assay, pancreatic cancer; format: cell-based; details: Homo sapiens, inhibition of cancer cell proliferation
[18] = test system: ovarian cancer (4 cell lines); assay: CellTiter-Glo Viability Assay, ovarian cancer; format: cell-based; details: Homo sapiens, inhibition of cancer cell proliferation
[19] = SNU-398, SNU398 cell line, read-out: Liver cancer, EC50 SNU398
[20] = HEPG2 cell line, read-out: Liver cancer, EC50 HEPG2
[21] = PLC/PRF/5 cell line, read-out: Liver cancer, EC50 PLC/PRF/5
[22] = DND41, DND-41 cell line, read-out: Haematopoietic & Lymphoid tumors, EC50 (μM) DND-41
[23] = MV4-11, MV-4-11 cell line, read-out: Haematopoietic & Lymphoid tumors, EC50 (μM) MV-4-11
[24] = Rec1, REC-1 cell line, read-out: Haematopoietic & Lymphoid tumors, EC50 (μM) REC-1
[25] = SU-DHL-4, SUDHL4 cell line, read-out: Haematopoietic & Lymphoid tumors, EC50 (μM) SUDHL4
[26] = HL-60 cell line, read-out: Haematopoietic & Lymphoid tumors, EC50 (μM) HL-60
[27] = JM1 cell line, read-out: Haematopoietic & Lymphoid tumors, EC50 (μM) JM1
[28] = JURKAT, Clone E6-1 cell line, read-out: Haematopoietic & Lymphoid tumors, EC50 (μM) JURKAT, Clone E6-1
[29] = JeKo-1 cell line, read-out: Haematopoietic & Lymphoid tumors, EC50 (μM) JeKo-1
[30] = KASUMI-1 cell line, read-out: Haematopoietic & Lymphoid tumors, EC50 (μM) KASUMI-1
[31] = Loucy cell line, read-out: Haematopoietic & Lymphoid tumors, EC50 (μM) Loucy
[32] = MOLT-4 cell line, read-out: Haematopoietic & Lymphoid tumors, EC50 (μM) MOLT-4
[33] = TF-1 cell line, read-out: Haematopoietic & Lymphoid tumors, EC50 (μM) TF-1
[34] = TOLEDO cell line, read-out: Haematopoietic & Lymphoid tumors, EC50 (μM) TOLEDO
[35] = DU-145, read-out: Prostate cancer EC50 Du-145
[36] = PC-3, PC3 cell line, inhibition of cancer cell proliferation, read-out: Prostate cancer EC50 PC3
[37] = 22Rv1 cell line, inhibition of cancer cell proliferation, read-out: Prostate cancer EC50 22Rv1
[38] = LNCap clone FGC cell line, inhibition of cancer cell proliferation, read-out: Prostate cancer EC50 LNCap clone FGC
[39] = VCaP (Sigma) cell line, inhibition of cancer cell proliferation, read-out: Prostate cancer EC50 VCaP (Sigma)
[40] = HCT-116, HCT116 cell line, read-out: Colorectal cancer, EC50 (μM) HCT116
[41] = HT-29, HT29 cell line, read-out: Colorectal cancer, EC50 (μM) HT29
[42] = SW-620, SW620 cell line, read-out: Colorectal cancer, EC50 (μM) SW620
[43] = DLD-1 cell line, read-out: Colorectal cancer, EC50 (μM) DLD-1
[44] = SW48 cell line, read-out: Colorectal cancer, EC50 (μM) SW48
[45] = SW480 cell line, read-out: Colorectal cancer, EC50 (μM) SW480
[46] = A-427, A427 cell line, read-out: Lung cancer, EC50 (μM) A427
[47] = HCC78, HCC-78 cell line, read-out: Lung cancer, EC50 (μM) HCC-78
[48] = NCI-H460 cell line, read-out: Lung cancer, EC50 (μM) NCI-H460
[49] = NCI-H522 cell line, read-out: Lung cancer, EC50 (μM) NCI-H522
[50] = BXPC-3, BxPC3 cell line, read-out: Pancreatic cancer, EC50 BxPC3
[51] = CAPAN-1, Capan1 cell line, read-out: Pancreatic cancer, EC50 Capan1
[52] = Capan-2, Capan2 cell line, read-out: Pancreatic cancer, EC50 Capan2
[53] = MIA PaCa-2 cell line, read-out: Pancreatic cancer, EC50 MIA PaCa-2
[54] = PANC 05.04 cell line, read-out: Pancreatic cancer, EC50 PANC 05.04
[55] = PANC-1 cell line, read-out: Pancreatic cancer, EC50 PANC-1
[56] = UPAFII cell line, read-out: Pancreatic cancer, EC50 UPAFII
[57] = PA-1, PA1 cell line, read-out: Ovarian cancer, EC50 (μM) PA1
[58] = TOV112D, TOV-112D cell line, read-out: Ovarian cancer, EC50 (μM) TOV-112D
[59] = OV-90 cell line, read-out: Ovarian cancer, EC50 (μM) OV-90
[60] = OVCAR-3 cell line, read-out: Ovarian cancer, EC50 (μM) OVCAR-3

CS(=O)(=O)NCc1cc(F)cc(-c2nccc3[nH]c(-c4n[nH]c5ccc(-c6cncc(NC(=O)C7CCC7)c6)cc45)cc23)c1 [Compound 53]
pEC50 [1]: 8.01 | pEC50 [2, 19]: 7.10 | pEC50 [2, 20]: 5.68 | pEC50 [2, 21]: < 5.00 | pEC50 [3]: 5.19 | pEC50 [4]: 6.68 | pEC50 [5]: 6.34 | pEC50 [6]: 5.83 | pEC50 [7]: 5.50 | pEC50 [8]: 6.47 | pEC50 [9]: 6.12 | pEC50 [10]: 5.89 | pEC50 [11]: 7.56 | EC50 [12, 22]: 0.176 µM | EC50 [12, 23]: 0.046 µM | EC50 [12, 24]: 7.2 µM | EC50 [12, 25]: 0.477 µM | EC50 [12, 26]: 1.02 µM | EC50 [12, 27]: 0.222 µM | EC50 [12, 28]: 2.44 µM | EC50 [12, 29]: 0.088 µM | EC50 [12, 30]: 0.804 µM | EC50 [12, 31]: 0.15 µM | EC50 [12, 32]: 2.02 µM | EC50 [12, 33]: 4.7 µM | EC50 [12, 34]: 0.249 µM | pEC50 [13, 35]: 5.93 | pEC50 [13, 36]: 6.33 | pEC50 [13, 37]: 6.25 | pEC50 [13, 38]: 5.55 | pEC50 [13, 39]: 5.61 | EC50 [14, 40]: 0.749 µM | EC50 [14, 41]: 8.88 µM | EC50 [14, 42]: 0.385 µM | EC50 [14, 43]: 3.57 µM | EC50 [14, 44]: 0.861 µM | EC50 [14, 45]: 0.305 µM | pEC50 [15]: 5.67 | EC50 [16, 46]: 0.23 µM | EC50 [16, 47]: 0.961 µM | EC50 [16, 48]: > 10 µM | EC50 [16, 49]: 0.327 µM | pEC50 [17, 50]: 5.45 | pEC50 [17, 51]: 5.74 | pEC50 [17, 52]: 5.52 | pEC50 [17, 53]: 6.66 | pEC50 [17, 54]: 5.67 | pEC50 [17, 55]: < 5.00 | pEC50 [17, 56]: 5.89 | EC50 [18, 57]: 2.29 µM | EC50 [18, 58]: 0.446 µM | EC50 [18, 59]: 1.6 µM | EC50 [18, 60]: 0.145 µM

O=C1CCc2cccc(c2)-c2cncc3[nH]c(nc23)-c2n[nH]c3ccc(cc23)-c2cncc(c2)N1 [Compound 55]
pEC50 [1]: 8.72 | pEC50 [2, 19]: 6.22 | pEC50 [2, 20]: < 5.46 | pEC50 [2, 21]: < 5.46 | pEC50 [3]: < 5.46 | pEC50 [4]: 6.07 | pEC50 [5]: < 5.46 | pEC50 [6]: < 5.46 | pEC50 [7]: 5.55 | pEC50 [8]: < 5.46 | pEC50 [9]: 6.09 | pEC50 [10]: < 5.46 | pEC50 [11]: 7.55 | EC50 [12, 22]: 0.776 µM | EC50 [12, 23]: 0.094 µM | EC50 [12, 24]: > 3.5 µM | EC50 [12, 25]: 0.983 µM | EC50 [12, 26]: > 3.5 µM | EC50 [12, 27]: 0.952 µM | EC50 [12, 28]: > 3.5 µM | EC50 [12, 29]: 0.357 µM | EC50 [12, 30]: 0.711 µM | EC50 [12, 31]: 1.36 µM | EC50 [12, 32]: > 3.5 µM | EC50 [12, 33]: > 3.5 µM | EC50 [12, 34]: 0.869 µM | pEC50 [13, 35]: < 5.46 | pEC50 [13, 36]: 5.47 | pEC50 [13, 37]: < 5.46 | pEC50 [13, 38]: < 5.46 | pEC50 [13, 39]: < 5.46 | EC50 [14, 40]: > 3.5 µM | EC50 [14, 41]: > 3.5 µM | EC50 [14, 42]: 1.97 µM | EC50 [14, 43]: > 3.5 µM | EC50 [14, 44]: > 3.5 µM | EC50 [14, 45]: > 3.5 µM | pEC50 [15]: 5.16 | EC50 [16, 46]: 3.1 µM | EC50 [16, 47]: > 3.5 µM | EC50 [16, 48]: > 3.5 µM | EC50 [16, 49]: 2.47 µM | pEC50 [17, 50]: < 5.46 | pEC50 [17, 51]: < 5.46 | pEC50 [17, 52]: < 5.46 | pEC50 [17, 53]: 5.77 | pEC50 [17, 54]: < 5.46 | pEC50 [17, 55]: < 5.46 | pEC50 [17, 56]: < 5.46 | EC50 [18, 57]: > 3.5 µM | EC50 [18, 58]: > 3.5 µM | EC50 [18, 59]: > 3.5 µM | EC50 [18, 60]: 0.766 µM
